Biological target: T1, Human M4 (Homo sapiens, UniProt P08173)
T1 construct: expressed in transfected cells
T1 sequence (P08173 1-479): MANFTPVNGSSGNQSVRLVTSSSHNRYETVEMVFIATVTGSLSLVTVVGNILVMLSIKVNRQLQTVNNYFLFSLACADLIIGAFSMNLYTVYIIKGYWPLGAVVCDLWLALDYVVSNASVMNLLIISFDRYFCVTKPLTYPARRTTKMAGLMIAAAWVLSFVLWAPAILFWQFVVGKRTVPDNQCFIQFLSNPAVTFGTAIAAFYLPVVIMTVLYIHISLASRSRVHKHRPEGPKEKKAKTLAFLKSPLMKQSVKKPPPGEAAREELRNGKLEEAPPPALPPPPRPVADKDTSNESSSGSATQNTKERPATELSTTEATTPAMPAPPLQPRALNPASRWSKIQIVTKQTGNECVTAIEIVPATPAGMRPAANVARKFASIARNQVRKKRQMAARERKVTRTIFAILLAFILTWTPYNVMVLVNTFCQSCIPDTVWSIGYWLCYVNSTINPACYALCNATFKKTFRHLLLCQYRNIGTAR
Assay: mAChR M4 cell-based functional assay (calcium flux, potentiation of EC20 acetylcholine response), hM4-Gqi5 CHO-K1 cells
Settings: for Emax at 30 µM: % ACh maximum at 30 μM, human M4, read-out: Emax; for EC50: hM4-Gqi5 CHO-K1 cells, calcium flux, PAM of EC20 acetylcholine, read-out: Human M4 EC50
Procedure, shortened: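 CHO-K1 cells stably expressing human M4 with chimeric Gqi5, loaded with Fluo-4 AM 50 min at 37 °C; calcium flux read by FDSS. 11-point 1:3 compound curves added, then EC20 acetylcholine at 144 s; potentiation of the EC20 response fitted by four-parameter logistic to give EC50 and Emax.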

Cc1ccncc1-c1cnc2c(c1)CN(c1nn3cnnc3c(C)c1C)CC2 [Compound 102, 6-(7,8-dimethyl-[1,2,4]triazolo[4,3-b]pyridazin-6-yl)-3-(4-methyl-3-pyridyl)-7,8-dihydro-5H-1,6-naphthyridine]
Emax at 30 µM (CHO-K1): 94% | EC50: 0.105 µM

Cc1cc2nncn2nc1N1CCc2ncc(-c3cncs3)cc2C1 [Compound 103, 5-[6-(7-methyl-[1,2,4]triazolo[4,3-b]pyridazin-6-yl)-7,8-dihydro-5H-1,6-naphthyridin-3-yl]thiazole]
Emax at 30 µM (CHO-K1): 97% | EC50: 0.232 µM

Cc1cc2nncn2nc1N1CCc2ncc(-c3c(C)nn(C)c3C)cc2C1 [Compound 104, 6-(7-methyl-[1,2,4]triazolo[4,3-b]pyridazin-6-yl)-3-(1,3,5-trimethylpyrazol-4-yl)-7,8-dihydro-5H-1,6-naphthyridine]
Emax at 30 µM (CHO-K1): 91% | EC50: 0.398 µM

Cc1cc2nncn2nc1N1CCc2ncc(-c3c(C)noc3C)cc2C1 [Compound 105, 3,5-dimethyl-4-[6-(7-methyl-[1,2,4]triazolo[4,3-b]pyridazin-6-yl)-7,8-dihydro-5H-1,6-naphthyridin-3-yl]isoxazole]
Emax at 30 µM (CHO-K1): 86% | EC50: 0.325 µM

Cc1cc2nncn2nc1N1CCc2ncc(-c3cnn(C4CCCCC4)c3)cc2C1 [Compound 106, 3-(1-cyclohexylpyrazol-4-yl)-6-(7-methyl-[1,2,4]triazolo[4,3-b]pyridazin-6-yl)-7,8-dihydro-5H-1,6-naphthyridine]
Emax at 30 µM (CHO-K1): 59% | EC50: 0.234 µM

Cc1cc2nccn2nc1N1CCc2ncc(-c3cncs3)cc2C1 [Compound 107, 5-[6-(7-methylimidazo[1,2-b]pyridazin-6-yl)-7,8-dihydro-5H-1,6-naphthyridin-3-yl]thiazole]
Emax at 30 µM (CHO-K1): 80% | EC50: 0.113 µM

Cc1cc2nccn2nc1N1CCc2ncc(-c3cn(C)nc3C)cc2C1 [Compound 108, 3-(1,3-dimethylpyrazol-4-yl)-6-(7-methylimidazo[1,2-b]pyridazin-6-yl)-7,8-dihydro-5H-1,6-naphthyridine]
Emax at 30 µM (CHO-K1): 85% | EC50: 0.399 µM

Cc1cc2nccn2nc1N1CCc2ncc(-c3c(C)nn(C)c3C)cc2C1 [Compound 109, 6-(7-methylimidazo[1,2-b]pyridazin-6-yl)-3-(1,3,5-trimethylpyrazol-4-yl)-7,8-dihydro-5H-1,6-naphthyridine]
Emax at 30 µM (CHO-K1): 81% | EC50: 0.45 µM

Cc1cc2nccn2nc1N1CCc2ncc(-c3c(C)noc3C)cc2C1 [Compound 110, 3,5-dimethyl-4-[6-(7-methylimidazo[1,2-b]pyridazin-6-yl)-7,8-dihydro-5H-1,6-naphthyridin-3-yl]isoxazole]
Emax at 30 µM (CHO-K1): 62% | EC50: 0.236 µM

Cc1cc2nccn2nc1N1CCc2ncc(-c3ccn(C)n3)cc2C1 [Compound 111, 6-(7-methylimidazo[1,2-b]pyridazin-6-yl)-3-(1-methylpyrazol-3-yl)-7,8-dihydro-5H-1,6-naphthyridine]
Emax at 30 µM (CHO-K1): 69% | EC50: 1.18 µM

Cc1c(N2CCc3ncc(-c4cnn(C)c4)cc3C2)nn2cnnc2c1C [Compound 112, 6-(7,8-dimethyl-[1,2,4]triazolo[4,3-b]pyridazin-6-yl)-3-(1-methylpyrazol-4-yl)-7,8-dihydro-5H-1,6-naphthyridine]
Emax at 30 µM (CHO-K1): 101% | EC50: 0.124 µM

Cc1cc2nncn2nc1N1CCc2ncc(-c3cn(C)nc3C)cc2C1 [Compound 113, 3-(1,3-dimethylpyrazol-4-yl)-6-(7-methyl-[1,2,4]triazolo[4,3-b]pyridazin-6-yl)-7,8-dihydro-5H-1,6-naphthyridine]
Emax at 30 µM (CHO-K1): 97% | EC50: 0.33 µM

Cc1cc2nncn2nc1N1CCc2ncc(-c3ccn(C)n3)cc2C1 [Compound 114, 3-(1-methylpyrazol-3-yl)-6-(7-methyl-[1,2,4]triazolo[4,3-b]pyridazin-6-yl)-7,8-dihydro-5H-1,6-naphthyridine]
Emax at 30 µM (CHO-K1): 88% | EC50: 0.707 µM

Cc1c(N2CCc3ncc(C(=O)NCc4ccc(C(C)(C)O)cc4)cc3C2)nn2cnnc2c1C [Compound 115, 6-(7,8-dimethyl-[1,2,4]triazolo[4,3-b]pyridazin-6-yl)-N-[[4-(1-hydroxy-1-methyl-ethyl)phenyl]methyl]-7,8-dihydro-5H-1,6-naphthyridine-3-carboxamide]
Emax at 30 µM (CHO-K1): 73% | EC50: 4.18 µM

Cc1c(N2CCc3ncc(C(=O)NCC4CCCOC4)cc3C2)nn2cnnc2c1C (stereo not drawn) [Compound 116, 6-(7,8-dimethyl-[1,2,4]triazolo[4,3-b]pyridazin-6-yl)-N-(tetrahydropyran-3-ylmethyl)-7,8-dihydro-5H-1,6-naphthyridine-3-carboxamide]
Emax at 30 µM (CHO-K1): 75%

Cc1c(N2CCc3ncc(C(=O)N4CC(F)C4)cc3C2)nn2cnnc2c1C [Compound 117, [6-(7,8-dimethyl-[1,2,4]triazolo[4,3-b]pyridazin-6-yl)-7,8-dihydro-5H-1,6-naphthyridin-3-yl]-(3-fluoroazetidin-1-yl)methanone]
Emax at 30 µM (CHO-K1): 67%

Cc1c(N2CCc3ncc(C(=O)NCc4cncs4)cc3C2)nn2cnnc2c1C [Compound 118, 6-(7,8-Dimethyl-[1,2,4]triazolo[4,3-b]pyridazin-6-yl)-N-(thiazol-5-ylmethyl)-7,8-dihydro-5H-1,6-naphthyridine-3-carboxamide]
Emax at 30 µM (CHO-K1): 99% | EC50: 0.707 µM

Cc1c(N2CCc3ncc(C(=O)N4CCC(O)CC4C)cc3C2)nn2cnnc2c1C (stereo not drawn) [Compound 119, [6-(7,8-dimethyl-[1,2,4]triazolo[4,3-b]pyridazin-6-yl)-7,8-dihydro-5H-1,6-naphthyridin-3-yl]-(4-hydroxy-2-methyl-1-piperidyl)methanone]
Emax at 30 µM (CHO-K1): 73%

Cc1c(N2CCc3ncc(C(=O)NCC4COC4)cc3C2)nn2cnnc2c1C [Compound 120, 6-(7,8-dimethyl-[1,2,4]triazolo[4,3-b]pyridazin-6-yl)-N-(oxetan-3-ylmethyl)-7,8-dihydro-5H-1,6-naphthyridine-3-carboxamide]
Emax at 30 µM (CHO-K1): 76%

Cc1c(N2CCc3ncc(C(=O)NCc4cccs4)cc3C2)nn2cnnc2c1C [Compound 121, 6-(7,8-dimethyl-[1,2,4]triazolo[4,3-b]pyridazin-6-yl)-N-(2-thienylmethyl)-7,8-dihydro-5H-1,6-naphthyridine-3-carboxamide]
Emax at 30 µM (CHO-K1): 100% | EC50: 0.881 µM

Cc1c(N2CCc3ncc(C(=O)N4CCN(C5CC5)CC4)cc3C2)nn2cnnc2c1C [Compound 122, (4-cyclopropylpiperazin-1-yl)-[6-(7,8-dimethyl-[1,2,4]triazolo[4,3-b]pyridazin-6-yl)-7,8-dihydro-5H-1,6-naphthyridin-3-yl]methanone]
Emax at 30 µM (CHO-K1): 51%

Cc1c(N2CCc3ncc(C(=O)N4CC(C)(C)C4)cc3C2)nn2cnnc2c1C [Compound 123, (3,3-dimethylazetidin-1-yl)-[6-(7,8-dimethyl-[1,2,4]triazolo[4,3-b]pyridazin-6-yl)-7,8-dihydro-5H-1,6-naphthyridin-3-yl]methanone]
Emax at 30 µM (CHO-K1): 77% | EC50: 4.77 µM

Cc1c(N2CCc3ncc(C(=O)NC(C)c4nccs4)cc3C2)nn2cnnc2c1C (stereo not drawn) [Compound 124, 6-(7,8-dimethyl-[1,2,4]triazolo[4,3-b]pyridazin-6-yl)-N-(1-thiazol-2-ylethyl)-7,8-dihydro-5H-1,6-naphthyridine-3-carboxamide]
Emax at 30 µM (CHO-K1): 63% | EC50: 3.69 µM

Cc1c(N2CCc3ncc(C(=O)NCCN4CCCC4)cc3C2)nn2cnnc2c1C [Compound 125, 6-(7,8-dimethyl-[1,2,4]triazolo[4,3-b]pyridazin-6-yl)-N-(2-pyrrolidin-1-ylethyl)-7,8-dihydro-5H-1,6-naphthyridine-3-carboxamide]
Emax at 30 µM (CHO-K1): 85% | EC50: 7.2 µM

Cc1c(N2CCc3ncc(C(=O)N(C)Cc4ccco4)cc3C2)nn2cnnc2c1C [Compound 126, 6-(7,8-dimethyl-[1,2,4]triazolo[4,3-b]pyridazin-6-yl)-N-(2-furylmethyl)-N-methyl-7,8-dihydro-5H-1,6-naphthyridine-3-carboxamide]
Emax at 30 µM (CHO-K1): 55%

Cc1c(N2CCc3ncc(C(F)(F)F)cc3C2)nn2cnnc2c1C [Compound 127, 6-(7,8-dimethyl-[1,2,4]triazolo[4,3-b]pyridazin-6-yl)-3-(trifluoromethyl)-7,8-dihydro-5H-1,6-naphthyridine]
Emax at 30 µM (CHO-K1): 107% | EC50: 0.151 µM

Cc1ccc2c(n1)CCN(c1nn3cnnc3c(C)c1C)C2 [Compound 128, 6-(7,8-dimethyl-[1,2,4]triazolo[4,3-b]pyridazin-6-yl)-2-methyl-7,8-dihydro-5H-1,6-naphthyridine]
Emax (CHO-K1): 103% | EC50: 0.38 µM

CCn1ccc(-c2cnc3c(c2)CN(c2nn4cnnc4c(C)c2C)CC3)n1 [Compound 129, 6-(7,8-dimethyl-[1,2,4]triazolo[4,3-b]pyridazin-6-yl)-3-(1-ethylpyrazol-3-yl)-7,8-dihydro-5H-1,6-naphthyridine]
Emax at 30 µM (CHO-K1): 99% | EC50: 0.21 µM

CCn1ccc(-c2cnc3c(c2)CN(c2nn4cnnc4cc2C)CC3)n1 [Compound 130, 3-(1-ethylpyrazol-3-yl)-6-(7-methyl-[1,2,4]triazolo[4,3-b]pyridazin-6-yl)-7,8-dihydro-5H-1,6-naphthyridine]
Emax at 30 µM (CHO-K1): 93%

Source: patent US20250002507A1, “7,8-DIHYDRO-5H-1,6-NAPHTHYRIDINE DERIVATIVES AS POSITIVE ALLOSTERIC MODULATORS OF THE MUSCARINIC ACETYLCHOLINE RECEPTOR M4 FOR TREATING NEUROLOGICAL AND PSYCHIATRIC DISORDERS” (Vanderbilt University, priority 2021, published 2025)
